The record followed here is patent US6664231B1, “Anti-fungal peptides” (priority 1993, dated 2003).

Several values for one entry are separate records, joined by “and”; a condition that tells them apart may be missing. Equal entries are not always repeated. Where two headings read alike, the source gives them in different places.

The subject of assay [1] is Trychophyton rubrum ATCC 28188. Description: organism not typed. In kind it is cell-based. The note with it: read-out: Minimum Fungicidal Concentration, Trychophyton rubrum ATCC 28188. How it is done:
(§1) The anti-fungal activity of Domain III derived peptides was evaluated against a variety of fungal species, including species of Candida. Cryptococcus, Fusarium, Trichophyton, and Aspergillus, by an additional assay protocol utilizing Alamar Blue. Alamar Blue is an indicator dye formulated to measure quantitatively the proliferation of a variety of human or animal cells, bacteria, or fungi. It consists of an oxidation-reduction (REDOX) indicator that yields a colorimetric change in response to metabolic activity. For these experiments, species of Candida and Cryptococcus were grown in Sabouraud's dextrose broth (SDB) overnight. Strains of filamentous fungi (Aspergilius, Fusanum, Trichophyton) were obtained by irrigation of a confluent culture from a petri dish. Cells were washed and adjusted to a concentration of 5.0×10^3/mL in fresh SDB. […] Controls included amphotericin B, fluconazole, ketoconazole and griseofulvin. Antifungal drugs were also diluted in the same manner. Assays were performed in 96-well microuiter plates. […] The wells to be plated were determined by OD590 readings. The lowest concentration of peptide which maintained the blue color (or OD reading) of the blank was chosen along with the next two higher concentrations. Plates were allowed to grow for 18-48 hours depending on the rate of growth of each fungus. Minimal fungicidal activity (MFC) was determined as a 99.9% killing of the starting inoculum.

Assay [2] relates to Cryptococcus neoformans ATCC 13690. Description: microbe, parasite or virus in culture. As to conditions: Cryptococcus neoformans, ATCC13690; read-out: Minimum Fungicidal Concentration, Cryptococcus neoformans ATCC 13690. In kind it is cell-based. The method, then: as §1
The test system of assay [3] is Candida glabrata ATCC 2001. Description: microbe, parasite or virus in culture. As to conditions: Nakaseomyces glabratus, ATCC2001; read-out: Minimum Fungicidal Concentration, Candida glabrata ATCC 2001. The class given is cell-based. The method, then: as §1
The subject of a further assay is Aspergillus ATCC 13073. Put plainly: microbe, parasite or virus in culture. In kind it is cell-based. As to conditions: Aspergillus, ATCC13073; read-out: Minimum Fungicidal Concentration, Aspergillus ATCC 13073. The method, then: as §1
The test system of assay [4] is Candida albicans (SLU-1 and ATCC strains). Description: microbe, parasite or virus in culture. In kind it is cell-based. The note with it: Candida albicans. The method, then:
as §1

In assay [5] the test system is Candida parapsilosis ATCC 22019. Put plainly: microbe, parasite or virus in culture. The note with it: Lodderomyces parapsilosis, ATCC22019; read-out: Minimum Fungicidal Concentration, Candida parapsilosis ATCC 22019. The class given is cell-based. The method, then: as §1
Assay [6] deals with Fusarium solani ATCC 36031. Put plainly: microbe, parasite or virus in culture. In kind it is cell-based. The note with it: Fusarium solani, ATCC36031; read-out: Minimum Fungicidal Concentration, Fusarium solani ATCC 36031. The method, then: as §1
Assay [7] has as its system Aspergillus niger ATCC 16404. Description: microbe, parasite or virus in culture. The class given is cell-based. As to conditions: Aspergillus niger, ATCC16404; read-out: Minimum Fungicidal Concentration, Aspergillus niger ATCC 16404. How it is done:
as §1

Assay [8] has as its system C. albicans (SLU-1 strain). Description: Survival of mice systemically infected with Candida albicans. The class given is in vivo, mouse. The note with it: 1.24×10^5 C. albicans i.v.; 3 doses i.v. (Day 0, 2, 4); 10 mg/kg XMP.36, 5 mg/kg XMP.97, 10 mg/kg XMP.102, 1 mg/kg amphotericin B; FIG. 4. The method, then: Groups of 15 male DBA/2J mice at age 6-8 weeks (Jackson Laboratory, Bar Harbor, Me.) were inoculated with 1.24×10^5 C. albicans (SLU-1 strain as described in Example 2) by intravenous injection into the tail vein. Cells were prepared for animal injection as follows. A single colony was selected and used to inoculate a 5 mL tube of Sabouraud dextrose broth. Incubation was at 30° C. with shaking to allow aeration for a period of 15-18 hours. Four mL of the overnight culture were added to 100 mL of fresh Sabouraud dextrose broth (1:25 dilution) and incubated for 4 hours. The 100 mL culture was pelleted at 1,500×g for 5 minutes. Cells were washed twice by adding 20 mL D-PBS, vortexing and re-centrifuging. Cells were collected in one tube and a sample is diluted 1:10 to be measured by OD570 (1 OD unit=3×10^7 CFU/mL). The cells were diluted to the desired dose in D-PBS and kept at 4° C. until used. Doses were confirmed by performing serial ten-fold dilutions and plating 50 μl per dilution on Sabouraud dextrose agar. Colonies were counted the following day after overnight incubation at 37° C. A […] culture yielded approximately 1×10^9 CFU/mL.
Immediately after fungal challenge, the mice were intravenously injected via the tail vein with a 0.1 mL volume of 10 mg/kg XMP.36, 5 mg/kg XMP.97, 10 mg/kg XMP.102, 1 mg/kg amphotericin B (Sigma, St. Louis, Mo.), or phosphate buffered saline (PBS) as a control. Treatment with the same amounts of peptides, amphotericin B or PBS was repeated at Day 2 and Day 4 (except that the second dose of XMP.36 was given at a dose of 5 mg/kg). Mice were monitored twice daily for mortality until termination of the study at Day 28. […] In FIG. 4, the symbol “X” represents survival after treatment with amphotericin B; open squares, treatment with XMP.97; open circles, treatment with XMP.36; open diamonds, treatment with XMP.102; and open triangles, treatment with buffer. Statistical significance was evaluated using the Lifetest Survival Curve analysis. [Lawless, Statistical Models and Methods for Lifetime Data, John Wiley & Sons, New York (1982).] The duration and almost linear decline in survival is analogous to human opportunistic candidiasis.
In additional 3-dose studies, groups of 15 mice were injected with a fungal challenge of 0.5×10^5 Candida cells, prepared for injection as described above, followed by treatment at Day 0, Day 2 and Day 5 with a 0.1 mL volume of 10 mg/kg XMP.127, 5 mg/kg XMP.13, 5 mg/kg XMP.37, 1 mg/kg amphotericin B, or PBS as a control. […] In FIG. 5, the symbol “X” represents survival after treatment with amphotericin B; open circles, treatment with XMP.127; filled triangles, treatment with buffer; open squares, treatment with XMP.37; open triangles, treatment with XMP.13.
Further studies to determine the effectiveness of anti-fungal peptides were performed at an increased dosing regimen (6 doses rather than 3 doses as described above). Groups of 9 week-old male DBA/2J mice were inoculated with concentrations of 2.7×10^5 Candida cells (prepared as described above) by intravenous injection in the tail vein. Immediately after fungal challenge, the mice were treated with a 0.1 mL volume of 10 mg/kg XMP.284, 1 mg/kg amphotericin B or PBS as a control at Day 0, Day 2, Day 4, Day 7, Day 9 and Day 11. All amphotericin B-treated animals were protected.
Additional 6-dose experiments were conducted as described above, using inocula of 0.5-3.0×10^5 Candida cells and using 0.01, 0.05, 0.1, 0.5, 1.0 or 5.0 mg/kg doses of peptide.

Assay [9] deals with C. albicans (CA-1, Strain SLU-1). Description: Radial diffusion assay. In kind it is cell-based, Candida albicans. As to conditions: pmoles of peptide added to well to achieve a 30 mm^2 zone, PROBIT analysis; crude or purified (P′) peptide. The procedure, abridged: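 Peptides, serially diluted 2-fold in D-PBS (top ~1 mg/mL), diffused 3 h at 37° C into pH 7.4 phosphate-buffered agarose seeded with 1×10^6 CFU/mL yeast, before overnight growth under a 6% Sabouraud overlayer. Net inhibition zones measured after Coomassie staining; PROBIT fit of log pmol vs area gave pmol for 30 mm^2.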

Assay [10] has as its system polyene-resistant (ATCC 38247), 5-fluorocytosine-resistant (ATCC 44373), azole-resistant (ATCC 62342), ketoconazole-resistant (ATCC 64124) C. albicans. Put plainly: Fungicidal activity on commercially-available drug-resistant Candida strains. The class given is cell-based, Candida albicans. The note with it: ATCC 38247, 44373, 62342, 64124. The method, then:
Further experiments were performed to determine the anti-fungal activity of Domain III derived peptides on commercially-available strains of Candida considered resistant to other anti-fungal agents: polyene-resistant C. albicans (ATCC Accession No. 38247), 5-fluorocytosine-resistant C. albicans (ATCC No. 44373), azole-resistant C. albicans (ATCC No. 62342), and ketoconazole-resistant C. albicans (ATCC No. 64124).

Another assay deals with Candida glabrata. Description: Radial diffusion assay, Candida species (Table 2). The class given is cell-based. How it is done:
(§2) The anti-fungal activity of Domain III derived peptides was also evaluated in vitro against a variety of fungal species, including Candida glabrata, Candida krusei, Candida lusitaniae, Candida parapsilosis, and Candida tropicalis. For these experiments, one colony of each of the above-listed Candida strains was picked from a Sabouraud's dextrose agar (SDA) plate and inoculated into 5 mL of Sabouraud's dextrose broth (SDB, 2% dextrose and 1% neopeptone) or, for C. krusei, Yeast Malt broth (YM, Becton Dickenson, Cockeysville, Md., cat no. BL 11405) in 12 mL polyproplyene snap-cap tubes. The tube cultures were incubated overnight with shaking at 37° C.
(§3) Cultures were harvested when the OD570 of a 1:10 dilution was greater than or equal to the following values: 0.083 for Candida glabrata, 0.154 for Candida krusei, 0.117 for Candida lusitaniae, 0.076 for Candida parapsilosis, and 0.192 for Candida tropicalis. Cells were centrifuged for 7 minutes in an Eppendorf microfuge at 3,000 rpm (about 1,500 g). The cell pellet was resuspended in 1 mL PBS and approximately 1×10^7 cells in about 0.5 mL were added to 10 mL of cooled underlay agar (3% SBD, 1% agarose, 0.02% Tween 20, 10 mM sodium phosphate buffer, pH 7.4 at about 45° C.). The suspension was poured into square petri plates, allowed to solidify, and wells cut as described above.
(§4) Peptides were two-fold serially diluted with D-PBS from about 20 μL of a starting concentration of approximately 1 mg/mL. Five μL of peptide dilution were added per well and allowed to diffuse for at least about 30 minutes into the agar at […] (to allow complete diffusion). Then 10 mL of molten overlayer agarose (6% SDB, 1% agarose, 10 mM sodium phosphate buffer, pH 7.4 at about 45° C.) were added and the plates were incubated inverted at […] overnight. Plates were stained with a dilute Coomassie solution, inhibition zones were measured with calipers and net areas were calculated, then converted to pmole values by PROBIT analysis.

The next assay relates to Candida parapsilosis. Put plainly: Radial diffusion assay, Candida species (Table 2). The class given is cell-based. The method, then:
as §2, §3, §4

Another assay concerns Candida lusitaniae. Put plainly: Radial diffusion assay, Candida species (Table 2). The class given is cell-based. How it is done:
as §2, §3, §4

The test system of the next assay is Candida tropicalis. Put plainly: Radial diffusion assay, Candida species (Table 2). In kind it is cell-based. How it is done:
as §2, §3, §4

Another assay deals with Candida krusei. Put plainly: Radial diffusion assay, Candida species (Table 2). In kind it is cell-based. How it is done:
as §2, §3, §4

The next assay deals with Candida albicans. Put plainly: Radial diffusion assay, Candida species (Table 2). In kind it is cell-based. The note with it: higher effective concentration of agarose than Table 1.

As for `OC(Cn1cncn1)(Cn1cncn1)c1ccc(F)cc1F` [Fluconazole, fluconazole], the MFC in [1] was more than 10 µg/mL; in assay [2], more than 10 µg/mL; in assay [3], more than 10 µg/mL; in the assay with Aspergillus ATCC 13073, more than 50 µg/mL; in assay [4] (ATCC10231, strain ATCC 10231, read-out: Minimum Fungicidal Concentration, Candida albicans ATCC 10231), more than 10 µg/mL; in assay [4] (ATCC18840, strain ATCC 18840, read-out: Minimum Fungicidal Concentration, Candida albicans ATCC 18840), more than 10 µg/mL. Also, the MFC was more than 10 µg/mL in assay [4] (ATCC26555, strain ATCC 26555, read-out: Minimum Fungicidal Concentration, Candida albicans ATCC 26555); more than 10 µg/mL in assay [4] (ATCC44808, strain ATCC 44808, read-out: Minimum Fungicidal Concentration, Candida albicans ATCC 44808); more than 10 µg/mL in assay [4] (ATCC90028, strain ATCC 90028, read-out: Minimum Fungicidal Concentration, Candida albicans ATCC 90028); more than 10 µg/mL in assay [4] (strain SLU-1, read-out: Minimum Fungicidal Concentration, Candida albicans SLU-1); more than 10 µg/mL in [5]; more than 10 µg/mL in assay [6]. In addition, the MFC in assay [7] was more than 10 µg/mL.

Take H-KSKVGALIQLFHKK-NH2 [XMP.36]: the “mice survived until Day 28” value in assay [8] is on record as 33%. Besides, the “C. albicans pmol/30 mm^2 zone” value in assay [9] is 197 pmol/30 mm^2 zone and 231 pmol/30 mm^2 zone. Moreover, in assay [10], the “Fungicidal activity on resistant strains” value is given as “not reduced”.

Regarding H-KSKVGVLIQLFHKK-NH2 [XMP.166], the “Anti-fungal activity: pmol/30 mm^2 zone, Candida glabrata” value in the assay with Candida glabrata was 2,100 pmol/30 mm^2 zone. In addition, the “Anti-fungal activity: pmol/30 mm^2 zone, Candida parapsilosis” value in the assay on Candida parapsilosis is recorded as 1,199 pmol/30 mm^2 zone. The “Anti-fungal activity: pmol/30 mm^2 zone, Candida lusitaniae” value with Candida lusitaniae is 1,133 pmol/30 mm^2 zone. Also, the “Anti-fungal activity: pmol/30 mm^2 zone, Candida tropicalis” value in the assay on Candida tropicalis is on record as 864 pmol/30 mm^2 zone. In addition, the “Anti-fungal activity: pmol/30 mm^2 zone, Candida krusei” value in the assay with Candida krusei is 3,240 pmol/30 mm^2 zone. In assay [9], the “C. albicans pmol/30 mm^2 zone” value was found to be 171 pmol/30 mm^2 zone. For the same molecule, in assay [10], the “Fungicidal activity on resistant strains” value was “not reduced”. Further, in the assay on Candida albicans, the “Anti-fungal activity: pmol/30 mm^2 zone, Candida albicans” value is on record as >3,079 pmol/30 mm^2 zone.
